Data taken from patent US20120107398A1, “PHARMACEUTICAL COMPOSITIONS” (BOEHRINGER INGELHEIM INTERNATIONAL GMBH, priority 2010, published 2012).
Structures can show the parent of a compound that is named as a salt.

Assay: Solubility of pioglitazone hydrochloride
Format: physicochemical
Procedure: For pioglitazone hydrochloride the intrinsic dissolution rates in aqueous media are only above 1000 μg/cm^2/min at pH 1, whereas for less acidic solutions (e.g. pH 2) the intrinsic dissolution rates are below 100 μg/cm^2/min. Therefore, the intrinsic dissolution rate of pioglitazone hydrochloride may be rate limiting for dissolution/absorption of the composition and pose an additional risk for providing similar dissolution profiles of pioglitazone hydrochloride in the composition to the original mono tablets (e.g. Actos) or combination market tablets (e.g. Duetact, Competact) and/or for matching bioequivalence with the original mono or combination market tablets.

CCc1ccc(CCOc2ccc(CC3SC(=O)NC3=O)cc2)nc1 (stereo not drawn) [pioglitazone hydrochloride]
solubility in strongly acidic media (strongly acidic media): slightly better solubility
solubility in water (water): practically insoluble
solubility in weak acidic and neutral to basic media (weak acidic and neutral to basic media): very poor solubility
